Measured values taken from DBAASP.
≈ marks a conversion by molar mass, not a printed value.

Columns and labels:
Test in all cases: ≥ marks a high value that may be exact or a test limit, other limits are often not marked, values filed in µg/mL are converted to µM
[1] = tested on: Staphylococcus aureus ATCC 25923
[2] = tested on: Bacillus subtilis ATCC 6633
Bacillus subtilis = tested on: Bacillus subtilis
[3] = tested on: Staphylococcus aureus ATCC 6538
[4] = tested on: Pseudomonas aeruginosa ATCC 9027
Acinetobacter baumannii = tested on: Acinetobacter baumannii
[5] = tested on: Klebsiella pneumoniae ATCC 700603
[6] = tested on: Escherichia coli ATCC 25922
Escherichia coli = tested on: Escherichia coli
Candida albicans = tested on: Candida albicans
Staphylococcus aureus = tested on: Staphylococcus aureus
[7] = tested on: Acinetobacter baumannii ATCC 19606

CC(C)C[C@H](NC(=O)[C@@H]1CSSC[C@H](NC(=O)CNC(=O)[C@H](CCCN=C(N)N)NC(=O)[C@H](Cc2ccccc2)NC(=O)[C@H](C)NC(=O)[C@H](C)N)C(=O)N[C@@H](Cc2c[nH]c3ccccc23)C(=O)N[C@@H]([C@@H](C)O)C(=O)N[C@@H](CCCCN)C(=O)N[C@@H](CC(N)=O)C(=O)N[C@@H](Cc2ccc(O)cc2)C(=O)N[C@@H](CO)C(=O)N2CCC[C@H]2C(=O)N[C@@H](CCCCN)C(=O)N2CCC[C@H]2C(=O)N1)C(=O)O [AAFRGCWTKNYSPKPCL] gave an MIC [1] of 51.5 µM (≈ 99.9 µg/mL) and an MIC [2] of 25.8 µM (≈ 50.1 µg/mL).
CC(C)C[C@H](NC(=O)[C@H](CCC(=O)O)NC(=O)[C@H](CC(C)C)NC(=O)[C@H](CO)NC(=O)[C@H](CC(=O)O)NC(=O)[C@H](Cc1ccc(O)cc1)NC(=O)[C@H](CCCN=C(N)N)NC(=O)[C@H](Cc1ccc(O)cc1)NC(=O)CNC(=O)[C@H](Cc1ccccc1)NC(=O)[C@H](CCCCN)NC(=O)[C@H](CCCCN)NC(=O)[C@H](Cc1ccc(O)cc1)NC(=O)[C@H](CC(=O)O)NC(=O)[C@H](Cc1ccccc1)NC(=O)[C@@H](NC(=O)[C@@H](N)CC(=O)O)[C@@H](C)O)C(=O)N[C@@H](CCC(=O)O)C(=O)NCC(=O)N[C@@H](CCCN=C(N)N)C(=O)O [DTFDYKKFGYRYDSLELEGR] gave an MIC (Bacillus subtilis) of 0.548 µM (≈ 1.37 µg/mL).
With CC(C)C[C@H](NC(=O)[C@H](CC(C)C)NC(=O)[C@H](CCCCN)NC(=O)[C@H](CCCCN)NC(=O)[C@H](C)NC(=O)[C@H](CC(C)C)NC(=O)[C@H](CCCCN)NC(=O)[C@H](CCCCN)NC(=O)[C@H](C)NC(=O)[C@@H](N)Cc1ccccc1)C(N)=O [FAKKLAKKLL] the MIC [3] was over 172 µM and the MIC [4] was over 172 µM.
For CC(C)C[C@H](NC(=O)[C@H](C)NC(=O)[C@H](Cc1ccccc1)NC(=O)[C@H](CCCCN)NC(=O)[C@H](CCCCN)NC(=O)[C@H](C)NC(=O)[C@H](CC(C)C)NC(=O)[C@H](CCCCN)NC(=O)[C@H](C)NC(=O)[C@H](Cc1ccccc1)NC(=O)[C@H](CC(C)C)NC(=O)[C@H](CCCCN)NC(=O)[C@H](C)NC(=O)[C@@H](N)Cc1ccccc1)C(N)=O [FAKLFAKLAKKFAL], the MIC [3] was 31.3 µM (≈ 50 µg/mL) and the MIC [4] was over 125 µM.
CC(C)C[C@H](NC(=O)[C@H](CC(C)C)NC(=O)[C@H](CCCCN)NC(=O)[C@H](CCCCN)NC(=O)[C@H](C)NC(=O)[C@H](CC(C)C)NC(=O)[C@H](CC(C)C)NC(=O)[C@H](CCCCN)NC(=O)[C@H](C)NC(=O)[C@@H](N)Cc1ccccc1)C(N)=O [FAKLLAKKLL] showed an MIC [3] of 87.4 µM (≈ 99.9 µg/mL) and an MIC [4] of 175 µM (≈ 200 µg/mL).
CC(C)C[C@H](NC(=O)[C@H](CCCCN)NC(=O)[C@H](C)NC(=O)[C@H](CC(C)C)NC(=O)[C@H](CC(C)C)NC(=O)[C@H](CCCCN)NC(=O)[C@H](C)NC(=O)[C@@H](N)Cc1ccccc1)C(=O)N[C@@H](C)C(=O)N[C@@H](CCCCN)C(=O)N[C@@H](C)C(=O)N[C@@H](CCCCN)C(=O)NCC(N)=O [FAKLLAKLAKAKG] was tested, and the MIC [3] was over 147 µM and the MIC [4] was over 147 µM.
For CC(C)C[C@H](NC(=O)[C@H](CCCCN)NC(=O)[C@H](C)NC(=O)[C@H](CCCCN)NC(=O)[C@H](C)NC(=O)[C@H](CC(C)C)NC(=O)[C@H](CCCCN)NC(=O)[C@H](C)NC(=O)[C@H](CC(C)C)NC(=O)[C@H](CC(C)C)NC(=O)[C@H](CCCCN)NC(=O)[C@H](C)NC(=O)[C@@H](N)Cc1ccccc1)C(N)=O [FAKLLAKLAKAKL], the MIC [3] was 10.6 µM (≈ 15 µg/mL) and the MIC [4] was 35.3 µM (≈ 50 µg/mL).
With CC(C)C[C@H](NC(=O)[C@H](CCCCN)NC(=O)[C@H](CC(C)C)NC(=O)[C@H](C)NC(=O)[C@H](CC(C)C)NC(=O)[C@H](CCCCN)NC(=O)[C@H](CCCCN)NC(=O)[C@H](CC(C)C)NC(=O)[C@H](CC(C)C)NC(=O)[C@H](CCCCN)NC(=O)[C@H](Cc1c[nH]c2ccccc12)NC(=O)[C@@H](NC(=O)[C@H](CC(C)C)NC(=O)[C@H](CCCCN)NC(=O)[C@@H](N)Cc1ccccc1)C(C)C)C(=O)O [FKLVWKLLKKLALKL] the MIC (Acinetobacter baumannii) was at least 64 µM, the MIC [5] was 64 µM (≈ 118 µg/mL) and the MIC [1] was 32 µM (≈ 58.9 µg/mL). It also gave an MIC [6] of over 64 µM and an MIC [4] of over 64 µM.
For CC(C)C[C@H](NC(=O)[C@@H](N)Cc1ccccc1)C(=O)N1CCC[C@H]1C(=O)N1CCC[C@H]1C(=O)N[C@@H](CO)C(=O)N1CCC[C@H]1C(=O)N[C@@H](Cc1c[nH]c2ccccc12)C(=O)N[C@@H](CCCCN)C(=O)N[C@@H](CCC(=O)O)C(=O)N[C@H](C(=O)N[C@@H](Cc1ccccc1)C(=O)N[C@@H](CCCN=C(N)N)C(=O)N[C@H](C(=O)N[C@@H](CO)C(=O)O)[C@@H](C)O)[C@@H](C)O [FLPPSPWKETFRTS], the MIC (Escherichia coli) was 25.1 µM (≈ 42.5 µg/mL), the MIC (Candida albicans) was 12.6 µM (≈ 21.3 µg/mL) and the MIC (Staphylococcus aureus) was 12.6 µM (≈ 21.3 µg/mL). It also gave an MIC (Bacillus subtilis) of at least 50.2 µM.
CC[C@H](C)[C@H](NC(=O)[C@H](CCCNC(=N)N)NC(=O)[C@@H](NC(=O)[C@@H](NC(=O)[C@@H]1CCCN1C(=O)[C@@H](NC(=O)[C@@H](NC(=O)[C@@H](NC(=O)[C@@H]1CCCN1C(=O)CNC(=O)[C@H](Cc1ccc(O)cc1)NC(=O)[C@H](CCCCN)NC(=O)[C@H](CCCCN)NC(=O)[C@H](Cc1c[nH]c2ccccc12)NC(=O)[C@H](C)NC(=O)[C@H](CCCNC(=N)N)NC(=O)[C@H](CC(C)C)NC(=O)[C@@H](NC(=O)[C@H](CCCCN)NC(=O)[C@H](CCCNC(=N)N)NC(=O)CNC(=O)[C@H](CC(C)C)NC(=O)[C@H](CO)NC(=O)[C@H](CCCNC(=N)N)NC(=O)[C@H](CC(C)C)NC(=O)CNC(=O)CN)[C@@H](C)CC)[C@@H](C)CC)[C@@H](C)CC)C(C)C)[C@@H](C)CC)[C@@H](C)CC)C(N)=O [GGLRSLGRKILRAWKKYGPIIVPIIRI] was tested, and the MIC (Acinetobacter baumannii) was 2.3 µM (≈ 7.07 µg/mL) and the MIC [7] was 1.63 µM (≈ 5 µg/mL).
CC[C@H](C)[C@H](NC(=O)CN)C(=O)N[C@@H](Cc1ccccc1)C(=O)NCC(=O)N[C@@H](CCCCN)C(=O)N[C@H](C(=O)N[C@@H](CC(C)C)C(=O)NCC(=O)N[C@H](C(=O)NCC(=O)N[C@@H](CCCCN)C(=O)N[C@@H](CCCCN)C(=O)N[C@H](C(=O)N[C@@H](CC(C)C)C(=O)N[C@H]1CSSC[C@@H](C(=O)O)NC(=O)[C@H](C(C)C)NC(=O)CNC(=O)[C@H](CO)NC(=O)[C@H](CC(C)C)NC(=O)CNC1=O)C(C)C)C(C)C)[C@@H](C)CC [GIFGKILGVGKKVLCGLSGVC] gave an MIC (Escherichia coli) of 11.5 µM (≈ 23.6 µg/mL), an MIC (Candida albicans) of 5.76 µM (≈ 11.8 µg/mL) and an MIC (Staphylococcus aureus) of 2.88 µM (≈ 5.89 µg/mL). The MIC (Bacillus subtilis) was 2.88 µM (≈ 5.89 µg/mL).
For CC[C@H](C)[C@H](NC(=O)[C@H](CCCCN)NC(=O)[C@H](CCCCN)NC(=O)[C@@H](NC(=O)[C@H](CC(C)C)NC(=O)[C@H](CC(C)C)NC(=O)[C@H](CCCCN)NC(=O)CN)C(C)C)C(=O)N[C@H](C(=O)N[C@@H](CO)C(=O)N[C@@H](CC(C)C)C(=O)N[C@H](C(=O)N[C@@H](CCCN=C(N)N)C(=O)N[C@@H](CO)C(=O)N[C@@H](C)C(N)=O)C(C)C)C(C)C [GKLLVKKIVSLVRSA], the MIC (Acinetobacter baumannii) was 25 µM (≈ 40.3 µg/mL), the MIC [5] was over 25 µM and the MIC [1] was over 25 µM. For the same molecule, the MIC [6] was over 25 µM and the MIC [4] was over 25 µM.
In the case of CC[C@H](C)[C@H](N)C(=O)N[C@@H](CC(N)=O)C(=O)N[C@@H](Cc1c[nH]c2ccccc12)C(=O)N[C@@H](CCCCN)C(=O)N[C@@H](CCCCN)C(=O)N[C@H](C(=O)N[C@@H](C)C(=O)N[C@@H](CO)C(=O)N[C@H](C(=O)NCC(=O)N[C@@H](CCCCN)C(=O)N[C@@H](CCC(=O)O)C(=O)N[C@H](C(N)=O)C(C)C)[C@@H](C)CC)[C@@H](C)CC [INWKKIASIGKEV], the MIC (Escherichia coli) was 100 µM (≈ 148 µg/mL) and the MIC (Bacillus subtilis) was at least 100 µM.
CC(C)C[C@H](NC(=O)[C@H](CC(C)C)NC(=O)[C@H](CCCCN)NC(=O)[C@H](CCCCN)NC(=O)[C@H](C)NC(=O)[C@H](CC(C)C)NC(=O)[C@H](CCCCN)NC(=O)[C@H](C)NC(=O)[C@H](CC(C)C)NC(=O)[C@H](CC(C)C)NC(=O)[C@H](CCCCN)NC(=O)[C@H](C)NC(=O)[C@@H](N)C(C)C)C(N)=O [VAKLLAKLAKKLL] was tested, and the MIC [3] was 3.55 µM (≈ 5 µg/mL) and the MIC [4] was 3.55 µM (≈ 5 µg/mL).
